Data published in patent US20250313535A1, “ALPHA 4 BETA 7 INTEGRIN MODULATORS AND USES THEREOF” (DICE MOLECULES SV, INC., priority 2022, published 2025).

Key:
[1] = test system: patients; details: clinical trials; at the end of one year of treatment; cited from earlier work
[2] = target: α4β7 integrin (Homo sapiens (Human), UniProt P13612+P26010); experiment: Integrin Adhesion Assay: Protocol 1 (MAdCAM-coated plate, RPMI-8866 cells, CellTiter GLO readout); type: cell-based; details: integrin adhesion assay; determined by at least one of the assays described (protocol not specified)
In short: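 RPMI-8866 cells (2×10^6 per mL) added with compounds (1% DMSO) to MAdCAM-coated wells blocked in HEPES/NaCl buffer with 1 mM MnCl2, 0.1 mM CaCl2, 1% BSA; 1 h at 37° C, 5% CO2. After four washes, bound cells read by CellTiter GLO luminescence; % inhibition vs DMSO and control wells, 4-parameter fit.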

[3] = target: α4β1 integrin (Homo sapiens (Human), UniProt P05556+P13612); experiment: Integrin Adhesion Assay: Protocol 2 (VCAM-coated plate, Jurkat cells, CellTiter GLO readout); type: cell-based; details: determined by at least one of the assays described (protocol not specified)
In short: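 Jurkat cells (2×10^6 per mL) adhered to VCAM-coated (0.1 ug/well), BSA-blocked wells with compound (1% DMSO) for 1 h at 37° C in 10 mM HEPES, 150 mM NaCl, 1 mM MnCl2, 0.1 mM CaCl2. After four washes, bound cells were quantified by CellTiter-Glo luminescence. Percent inhibition versus DMSO and control-compound wells was fitted to a 4-parameter curve.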

Chain of α4β7 integrin (P13612 34-1032): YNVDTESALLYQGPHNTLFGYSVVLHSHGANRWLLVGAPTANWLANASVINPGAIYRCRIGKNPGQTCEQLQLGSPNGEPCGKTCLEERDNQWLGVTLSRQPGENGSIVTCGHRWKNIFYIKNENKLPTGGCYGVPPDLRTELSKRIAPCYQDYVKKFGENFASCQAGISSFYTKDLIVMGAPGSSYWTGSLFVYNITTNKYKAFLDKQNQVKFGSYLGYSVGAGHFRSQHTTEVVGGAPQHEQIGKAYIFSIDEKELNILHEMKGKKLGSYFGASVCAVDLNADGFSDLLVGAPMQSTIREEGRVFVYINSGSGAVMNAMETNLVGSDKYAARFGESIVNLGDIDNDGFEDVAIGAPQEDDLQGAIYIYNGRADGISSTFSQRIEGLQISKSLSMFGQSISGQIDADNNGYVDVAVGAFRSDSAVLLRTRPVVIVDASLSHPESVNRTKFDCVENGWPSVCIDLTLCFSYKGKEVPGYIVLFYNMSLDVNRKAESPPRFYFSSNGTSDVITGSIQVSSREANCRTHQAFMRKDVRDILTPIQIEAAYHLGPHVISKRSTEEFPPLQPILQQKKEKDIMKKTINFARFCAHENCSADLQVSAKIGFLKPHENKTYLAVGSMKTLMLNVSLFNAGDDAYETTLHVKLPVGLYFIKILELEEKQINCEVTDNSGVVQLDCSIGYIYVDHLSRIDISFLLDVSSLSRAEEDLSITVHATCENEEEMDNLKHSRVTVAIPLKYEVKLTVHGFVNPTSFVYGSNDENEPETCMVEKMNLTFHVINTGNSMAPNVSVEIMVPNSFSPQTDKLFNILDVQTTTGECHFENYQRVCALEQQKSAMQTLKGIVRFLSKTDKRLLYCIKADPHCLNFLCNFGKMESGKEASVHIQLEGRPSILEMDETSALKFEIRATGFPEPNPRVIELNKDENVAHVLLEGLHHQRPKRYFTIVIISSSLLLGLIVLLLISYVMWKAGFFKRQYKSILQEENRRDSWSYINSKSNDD
Chain of α4β7 integrin (P26010 20-798): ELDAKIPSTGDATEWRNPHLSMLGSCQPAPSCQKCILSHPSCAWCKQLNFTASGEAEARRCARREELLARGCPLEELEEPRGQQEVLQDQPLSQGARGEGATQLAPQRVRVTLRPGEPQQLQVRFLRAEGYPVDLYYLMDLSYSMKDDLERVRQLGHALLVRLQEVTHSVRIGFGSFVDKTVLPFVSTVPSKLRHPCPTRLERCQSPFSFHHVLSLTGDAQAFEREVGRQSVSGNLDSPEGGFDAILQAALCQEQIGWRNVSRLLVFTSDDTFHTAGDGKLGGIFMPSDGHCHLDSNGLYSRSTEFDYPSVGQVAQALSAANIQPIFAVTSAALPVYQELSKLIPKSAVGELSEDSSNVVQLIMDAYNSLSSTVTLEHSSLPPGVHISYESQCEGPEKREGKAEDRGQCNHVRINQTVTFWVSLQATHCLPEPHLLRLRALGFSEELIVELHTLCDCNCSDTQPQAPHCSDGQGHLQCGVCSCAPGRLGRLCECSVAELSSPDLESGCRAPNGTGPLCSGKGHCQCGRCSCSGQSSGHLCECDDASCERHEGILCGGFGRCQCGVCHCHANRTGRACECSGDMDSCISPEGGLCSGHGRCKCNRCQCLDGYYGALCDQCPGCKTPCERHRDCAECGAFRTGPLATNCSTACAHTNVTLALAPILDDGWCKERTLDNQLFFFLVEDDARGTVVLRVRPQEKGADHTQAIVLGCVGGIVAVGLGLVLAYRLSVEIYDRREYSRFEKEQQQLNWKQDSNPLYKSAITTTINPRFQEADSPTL
Chain of α4β1 integrin (P13612 34-1032): as the sequence (P13612 34-1032) above
Chain of α4β1 integrin (P05556 21-798): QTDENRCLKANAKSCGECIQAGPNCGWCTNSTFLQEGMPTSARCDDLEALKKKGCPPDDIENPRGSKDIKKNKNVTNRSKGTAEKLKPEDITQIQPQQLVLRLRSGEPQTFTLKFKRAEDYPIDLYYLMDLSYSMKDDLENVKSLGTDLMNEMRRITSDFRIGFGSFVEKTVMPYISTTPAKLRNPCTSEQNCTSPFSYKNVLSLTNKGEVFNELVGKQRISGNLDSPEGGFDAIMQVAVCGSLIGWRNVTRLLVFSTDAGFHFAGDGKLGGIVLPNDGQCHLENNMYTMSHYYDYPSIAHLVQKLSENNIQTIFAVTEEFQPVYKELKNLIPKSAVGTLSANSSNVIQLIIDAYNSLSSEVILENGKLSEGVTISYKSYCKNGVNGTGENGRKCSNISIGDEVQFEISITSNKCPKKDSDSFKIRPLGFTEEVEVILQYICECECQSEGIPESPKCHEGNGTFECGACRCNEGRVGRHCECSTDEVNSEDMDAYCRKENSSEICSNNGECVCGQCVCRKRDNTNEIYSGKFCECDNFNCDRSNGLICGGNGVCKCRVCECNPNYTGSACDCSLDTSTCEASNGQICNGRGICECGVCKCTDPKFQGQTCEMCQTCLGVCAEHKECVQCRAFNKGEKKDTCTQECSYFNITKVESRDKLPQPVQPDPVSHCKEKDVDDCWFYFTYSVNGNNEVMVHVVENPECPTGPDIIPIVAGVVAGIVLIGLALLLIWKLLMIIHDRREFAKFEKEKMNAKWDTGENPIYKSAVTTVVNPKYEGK

Row | Compound | patients receiving ENTYVIO achieved remission [1] | IC50 [2] | IC50 [3]
1 | vedolizumab [ENTYVIO] | approximately 30% | – | –
2 | CC[C@@H](Nc1cc(F)c(C(=O)N[C@@H](Cc2cccc3c(-n4c(=O)ccn(C)c4=O)cccc23)C(=O)O)c(F)c1)C(F)(F)F [Compound 112] | – | < 0.01 µM | > 1 µM
3 | O=C(N[C@@H](Cc1cccc2c(-c3cccc4ccncc34)nccc12)C(=O)O)c1c(F)cc(NCC(F)(F)F)cc1CN1CCCC1 [Compound 256] | – | 0.01 to 0.1 µM | > 1 µM
4 | COC(=O)[C@H](Cc1cccc2c(-n3c(=O)ccn(C)c3=O)cccc12)NC(=O)c1c(F)cccc1CN1CCOCC1 [Compound 168] | – | 0.1 to 1 µM | > 1 µM
5 | O=C(N[C@@H](Cc1cccc2c(-c3cccc4ccncc34)nccc12)C(=O)O)c1c(F)cc(N2CCOC[C@@H]2C(F)(F)F)cc1CN1CCCC1 [Compound 255] | – | < 0.01 µM | 0.1 to 1 µM
6 | CC(C)CN1CCC(C)(C(=O)N[C@@H](Cc2cccc3c(-n4c(=O)ccn(C)c4=O)cccc23)C(=O)O)CC1 [Compound 59] | – | 0.01 to 0.1 µM | > 1 µM
7 | Cn1ccc(C(F)(F)F)c(-c2nccc3c(C[C@H](NC(=O)c4c(F)cc5nc(CC(F)(F)F)[nH]c5c4F)C(=O)O)cccc23)c1=O [Compound 213] | – | 0.01 to 0.1 µM | > 1 µM
8 | Cn1ccc(=O)n(-c2cccc3c(C[C@H](NC(=O)c4c(F)cc5nn(CC(F)(F)F)cc5c4F)C(=O)O)cccc23)c1=O [Compound 15] | – | < 0.01 µM | 0.1 to 1 µM
9 | Cn1ccc(=O)n(-c2cccc3c(C[C@H](NCc4ccccc4)C(=O)O)cccc23)c1=O [Compound 69] | – | > 1 µM | > 1 µM
10 | Cn1ccc(=O)n(-c2cccc3c(C[C@H](NC(=O)C4(C#N)CCN(CC(F)(F)F)CC4)C(=O)O)cccc23)c1=O [Compound 163] | – | 0.01 to 0.1 µM | > 1 µM
11 | Cn1ccc(C(F)(F)F)c(-c2nccc3c(C[C@H](NC(=O)c4c(F)cc(N5CCOC[C@@H]5C(F)(F)F)cc4F)C(=O)O)cccc23)c1=O [Compound 214] | – | < 0.01 µM | > 1 µM
12 | Cn1ccc(=O)n(-c2cccc3c(C[C@H](NC(=O)c4c(F)cc(CN5CCOCC5)cc4F)C(=O)O)cccc23)c1=O [Compound 34] | – | 0.1 to 1 µM | > 1 µM
13 | Cc1cc(N2CCOC[C@@H]2C(F)(F)F)cc(F)c1C(=O)N[C@@H](Cc1cccc2c(-c3c(C(F)(F)F)ccn(C)c3=O)nccc12)C(=O)O [Compound 215] | – | < 0.01 µM | > 1 µM
14 | Cn1ccc(=O)n(-c2cccc3c(C[C@H](NC(=O)C4(C)CCC(F)(F)CC4)C(=O)O)cccc23)c1=O [Compound 63] | – | 0.01 to 0.1 µM | > 1 µM
15 | C/C=C/c1cn(C)c(=O)n(-c2cccc3c(C[C@H](NC(=O)c4c(F)cccc4F)C(=O)O)cccc23)c1=O [Compound 141] | – | 0.01 to 0.1 µM | > 1 µM
16 | CCc1ccc(F)c(C(=O)N[C@@H](Cc2cccc3c(-n4c(=O)ccn(C)c4=O)cccc23)C(=O)O)c1F [Compound 139] | – | 0.01 to 0.1 µM | 0.1 to 1 µM
17 | Cn1ccc(=O)n(-c2cccc3c(C[C@H](NC(=O)C4(C)CCN(C5COC5)CC4)C(=O)O)cccc23)c1=O [Compound 60] | – | 0.01 to 0.1 µM | > 1 µM
18 | Cn1ccc(=O)n(-c2cccc3c(C[C@H](NC(=O)C45C[C@H]6C[C@@H](C4)C[C@@H](C5)C6)C(=O)O)cccc23)c1=O [Compound 53] | – | 0.1 to 1 µM | > 1 µM
19 | CCOCc1cc(OC)c(-c2nccc3c(C[C@H](NC(=O)c4c(F)cccc4F)C(=O)O)cccc23)c(OC)c1 [Compound 260] | – | 0.01 to 0.1 µM | 0.1 to 1 µM
20 | Cn1ccc(C(F)(F)F)c(-c2nccc3c(C[C@H](NC(=O)c4c(F)cc(N5CCOC[C@@H]5C5CC5)cc4F)C(=O)O)cccc23)c1=O [Compound 251] | – | < 0.01 µM | > 1 µM
21 | Cn1ccc(=O)n(-c2cccc3c(C[C@H](NC(=O)c4c(F)cc(N5CCOC[C@H]5C(F)(F)F)cc4F)C(=O)O)cccc23)c1=O [Compound 170] | – | 0.01 to 0.1 µM | > 1 µM

Row | Compound | patients receiving ENTYVIO achieved remission [1] | IC50 [2] | IC50 [3]
22 | CN1CCN(Cc2cc(N3CCOC[C@@H]3C(F)(F)F)cc(F)c2C(=O)N[C@@H](Cc2cccc3c(-n4c(=O)ccn(C)c4=O)cccc23)C(=O)O)CC1 [Compound 22] | – | < 0.01 µM | > 1 µM
23 | O=C(N[C@@H](Cc1cccc2c(-c3nccc4ccncc34)cccc12)C(=O)O)c1c(F)cc(N2CCOC[C@@H]2CC(F)F)cc1F [Compound 39] | – | 0.01 to 0.1 µM | > 1 µM
24 | Cn1ccc(=O)n(-c2cccc3c(C[C@H](NC(=O)c4c(F)cc(N5CCOC[C@@H]5C(F)(F)F)cc4CN4CCOCC4)C(=O)O)cccc23)c1=O [Compound 20] | – | < 0.01 µM | 0.1 to 1 µM
25 | CCOCc1cc(OC)c(-c2cccc3c(C[C@H](NC(=O)c4c(F)cccc4F)C(=O)O)cccc23)c(OC)c1 [Compound 172] | – | 0.01 to 0.1 µM | 0.1 to 1 µM
26 | Cn1ccc(C(F)(F)F)c(-c2nccc3c(C[C@H](NC(=O)c4c(CN5CCOCC5)cc(N5CCOC[C@@H]5C(F)(F)F)cc4C(F)(F)F)C(=O)O)cccc23)c1=O [Compound 227] | – | > 1 µM | > 1 µM
27 | Cn1ccc(=O)n(-c2cccc3c(C[C@H](NC(=O)C(C)(C)c4cccc(-c5ccccc5)c4)C(=O)O)cccc23)c1=O [Compound 176] | – | 0.1 to 1 µM | > 1 µM
28 | Cn1ccc(=O)n(-c2cccc3c(C[C@H](NC(=O)c4ccc(C(=O)N5CCc6ccccc6C5)nc4)C(=O)O)cccc23)c1=O [Compound 25] | – | > 1 µM | > 1 µM
29 | Cn1ccc(=O)n(-c2cccc3c(C[C@H](NC(=O)c4c(F)cc5c(c4F)CS(=O)(=O)N5)C(=O)O)cccc23)c1=O [Compound 43] | – | < 0.01 µM | 0.1 to 1 µM
30 | Cn1ccc(=O)n(-c2cccc3c(C[C@H](NC(=O)C45CCC(C(F)(F)F)(CC4)CC5)C(=O)O)cccc23)c1=O [Compound 165] | – | 0.1 to 1 µM | > 1 µM
31 | Cn1c(CCN2CC(F)C2)cc(=O)n(-c2cccc3c(C[C@H](NC(=O)c4c(F)cc(N5CCOC[C@@H]5C(F)(F)F)cc4F)C(=O)O)cccc23)c1=O [Compound 169] | – | < 0.01 µM | > 1 µM
32 | Cn1ccc(=O)n(-c2cccc3c(C[C@H](NC(=O)C(C)(C)CSc4cccc(C(F)(F)F)c4)C(=O)O)cccc23)c1=O [Compound 177] | – | > 1 µM | > 1 µM
33 | Cn1ccc(=O)n(-c2cccc3c(C[C@H](NC(=O)C(C)(C)c4ccc(Oc5ccccc5)cc4)C(=O)O)cccc23)c1=O [Compound 178] | – | > 1 µM | > 1 µM
34 | Cn1ccc(=O)n(-c2cccc3c(C[C@H](NC(=O)C4(C)CCCCC4)C(=O)O)cccc23)c1=O [Compound 161] | – | 0.1 to 1 µM | > 1 µM
35 | Cc1cc(C(F)(F)F)c(-c2cccc3c(C[C@H](NC(=O)c4c(F)cc(N5CCOC[C@@H]5C(F)(F)F)cc4F)C(=O)O)cccc23)c(=O)n1C [Compound 113] | – | < 0.01 µM | 0.1 to 1 µM
36 | O=C(N[C@@H](Cc1cccc2c(-c3nccc4ccncc34)cccc12)C(=O)O)c1c(F)cc(N2CCOC[C@@H]2C(F)(F)F)cc1CN1CCOCC1 [Compound 129] | – | < 0.01 µM | 0.1 to 1 µM
37 | Cn1ccc(=O)n(-c2cccc3c(C[C@H](NC(=O)c4c(F)cc(N5CCOC[C@@H]5C(F)(F)F)cc4CN4CCCC4)C(=O)O)cccc23)c1=O [Compound 48] | – | < 0.01 µM | 0.1 to 1 µM
38 | Cn1ccc(=O)n(-c2cccc3c(C[C@H](NC(=O)C45CCC(CC4)CC5)C(=O)O)cccc23)c1=O [Compound 51] | – | 0.1 to 1 µM | > 1 µM
39 | CCN1CCC(C(=O)N[C@@H](Cc2cccc3c(-n4c(=O)ccn(C)c4=O)cccc23)C(=O)O)CC1 [Compound 36] | – | > 1 µM | > 1 µM
40 | Cn1ccc(=O)n(-c2cccc3c(C[C@H](NC(=O)c4cc(C(=O)NCCCCN)n(-c5ccccc5)n4)C(=O)O)cccc23)c1=O [Compound 45] | – | > 1 µM | > 1 µM
41 | Cn1ccc(=O)n(-c2cccc3c(C[C@H](NC(=O)c4c(F)cc5c(cnn5CC(F)(F)F)c4F)C(=O)O)cccc23)c1=O [Compound 126] | – | < 0.01 µM | 0.1 to 1 µM
